# Experimental data from patent US8871807B2, “Detergents capable of cleaning, bleaching, sanitizing and/or disinfecting textiles including sulfoperoxycarboxylic acids” (Ecolab USA Inc., priority 2008, dated 2014).
# Like-named read-outs stand apart in the source and are kept apart here.
# Tests used:
# Contact angle study = type: physicochemical; details: concentrate diluted 250 times with DI water (11-SPOUA 85 times)
# Description: A study was performed to measure the wetting properties of various sulfonated peracids in aqueous solutions, by measuring the contact angle of the individual solution on different surfaces.
# A FTA32 Contact Angle Goniometer with image processing by FTA 32 software was used to measure the contact angle. The contact angle was measured on both stainless steel, and polypropylene surfaces. The peracid concentrates shown in the table below were diluted 250 times with DI water. However, the 11-SPOUA was diluted 85 times with DI water, given the lower levels of peracid precursor in the formula.
# The results shown are the average of at least three contact angle measurements.
# [1] = Coupling ability study, 1-octanoic acid by liquid chromatography; type: physicochemical; details: for 1-Octanoic acid (ppm) coupled: 0.4 grams 1-octanoic acid added to 20 g peracid solution in hydrogen peroxide, filtered lower phase
# Description: A study was performed to determine the coupling/hydrotropic properties of various sulfonated peracids in aqueous solutions. The ability of the selected peracids to couple octanoic acid was measured.
# Twenty grams (20 g) of each peracid solution was diluted into a beaker containing hydrogen peroxide. […] To each of these solutions, 0.4 grams of 1-octanoic acid was added. The octanoic acid initially floated to the tops of the solutions. The solutions were then stirred for 5-10 minutes with magnetic stir bars at 1,000 rpm. The solutions were then centrifuged for 20 minutes at 3,000-5,000 rpm. The lower phase of each solution was then collected. The lower phases were further clarified by filtration through 0.45 micron syringe filters. All of the filtrates appeared clear and homogenous. The filtered solutions were analyzed by liquid chromatography for 1-octaonic acid.
# [2] = Stability of sulfonated peracids in aqueous solution, half time; type: physicochemical
# Description: A study was performed to determine the stability of various sulfonated peracids in aqueous solutions. The sulfonated peracids were compared under the same controlled conditions to determine how the structural differences of the selected peracids impacted stability. The sulfonated peracids studied included both mid-chain sulfonated and terminally sulfonated peracids.
# Each peracid was tested at a concentration of 50 ppm under ambient conditions. Each individual solution was prepared from the corresponding peracid concentrate by adding it to a 0.05 M pH 5.0 citrate buffer, and adjusting the final solution pH to 5.0 with the addition of a small amount of caustic.
# The peracid concentration over time was measured using a kinetic iodometric titration method. For comparison, 50 ppm peroxyacetic acid (POAA), at the same concentration and under the same conditions, was also included in the stability study. Based on the results seen in FIG. 7, the half time of each individual peracid was estimated and the results are summarized in the table below.
# [3] = Powder storage stability at elevated temperature; type: physicochemical; details: about 140° F.
# Description: The compositions of the present invention also show enhanced stability compared to conventional peroxygen containing compositions. In some embodiments, the compositions of the present invention are stable for at least about 1 year at room temperature. In some embodiments, the compositions of the present invention are stable at about 100° F. for at least 30 days. In other embodiments, the compositions of the present invention are stable at about 140° F. for at least 30 days. For example, 11-sulfoundecanoic peroxyacid (Compound D) is stable as a powder system at about 140° F. for at least 30 days.
# [4] = Storage stability, loss of active oxygen by titrimetry; type: physicochemical; details: 4 weeks
# Description: The stability of a sulfoperoxycarboxylic acid of the present invention, i.e., 11-sulfoundecaneperoxoic acid (Compound D), was compared to that of phthalimidoperoxyhexanoic acid (PAP). The stability data for the PAP sample were taken from U.S. Pat. No. 5,994,284, assigned to Clariant GmbH. Samples of the compound of the present invention were stored for four (4) weeks at various temperatures. The loss of active oxygen was measured by titrimetry.
# [5] = pH 4
# Source text: The issue of low solubility when using long chain peracids has been addressed by increasing the pH to above 7. […] Further, bleaching efficacy decreases proportionally with every pH unit increase over about 7.
# [6] = 4 weeks, data from U.S. Pat. No. 5,994,284, cited from earlier work
# [7] = stated for comparison; cited from earlier work
# Mycobacterium bovis BCG = type: cell-based; details: 300 ppm POOA, pH 6.5, room temperature
# B. subtilis = assay: Sporicidal efficacy at 14 days, EN 13704; type: cell-based; details: 30 ppm peroxyoctanoic acid alone; spore species not specified
# Description: The test method followed was according to European Standard EN 13704: Quantitative Suspension Test for the Evaluation of Sporicidal Activity of Chemical Disinfectants and Antiseptics Used in Food, Industrial, Domestic and Institutional Areas. Generally, a test suspension of bacterial spores in a solution of interfering substance, simulating clean conditions, was added to a prepared sample of the test formulation diluted in hard water. The mixture was maintained at the specific temperature and time desired. At this contact time, an aliquot is taken; the sporicidal action in this portion was immediately neutralized or suppressed by a validated method. The number of surviving bacterial spores in each sample was determined and the reduction in viable counts was calculated. A test was run to determine the stability and sporicidal efficacy of a composition of the present invention against spores. The composition tested included the sulfonated peroleic acid product, and an amount of peroxyoctanoic acid. The test method used was the European Standard EN 13704: Quantitative Suspension Test for the Evaluation of Sporicidal Activity of Chemical Disinfectants and Antiseptics Used in Food, Industrial, Domestic and Institutional Areas, described above.
structure (smiles),measurement,setting,value
"O=C(CS(=O)(=O)O)OO [Compound 2-SPOAA, 2-Sulfoperoxyacetic acid]","Contact Angle (degree), Polypropylene",Contact angle study,75 degree
same,"Contact Angle (degree), Stainless Steel",Contact angle study,77 degree
same,1-Octanoic acid (ppm) coupled,[1],160 ppm
same,half-life at 50 ppm,"[2]; buffer, pH 5",37 h
"O=C(CCCCCS(=O)(=O)O)OO [Compound 6-SPOHXA, 6-sulfoperoxyhexanoic acid]","Contact Angle (degree), Polypropylene",Contact angle study,84 degree
same,"Contact Angle (degree), Stainless Steel",Contact angle study,77 degree
same,1-Octanoic acid (ppm) coupled,[1],240 ppm
same,half-life at 50 ppm,"[2]; buffer, pH 5",88 h
"O=C(CCCCCCCCCCS(=O)(=O)O)OO [Compound D, 11-sulfoundecaneperoxoic acid]","Contact Angle (degree), Polypropylene",Contact angle study,77 degree
same,"Contact Angle (degree), Stainless Steel",Contact angle study,72 degree
same,1-Octanoic acid (ppm) coupled,[1],890 ppm
same,dissolution of peracid solution in hydrogen peroxide,[1]; 20 g of peracid solution diluted into hydrogen peroxide,dissolved only partially
same,stable as a powder system,[3],at least 30 days
same,Loss of Active Oxygen (%),[4]; 38 ° C.,7.9%
same,Loss of Active Oxygen (%),[4]; 50 ° C.,15.7%
same,Loss of Active Oxygen (%),[4]; Room Temp.,0.78%
same,half-life at 50 ppm,"[2]; buffer, pH 5",91 h
same,solubility,[5],about 1.3%
"O=C(CCCCCN1C(=O)c2ccccc2C1=O)OO [PAP, phthalimidoperoxyhexanoic acid]",Loss of Active Oxygen (%),[6]; 25 ° C.,1.4%
same,Loss of Active Oxygen (%),[6]; 40 ° C.,2.0%
same,Loss of Active Oxygen (%),[6]; 50 ° C.,12.0%
"CC(=O)OO [POAA, peroxyacetic acid]",half-life at 50 ppm,"[2]; 50 ppm peracid, 0.05 M citrate buffer pH 5.0, ambient conditions, read-out: t1/2 (converted)",115 h
same,percarboxylic acid formation constant (Keq),[7],2.70
"CCCCCCCC(=O)OO [POOA, peroxyoctanoic acid]",Log Reduction,Mycobacterium bovis BCG; 2.5 min,3.48
same,Log Reduction,Mycobacterium bovis BCG; 5 min,<4.31
same,reduction of spores,B. subtilis,did not result in a reduction
